Where a name gives a salt, the structure may show the parent alone.
Columns and labels:
[1] = tested on: THP-1 cells; assay: Activation of IFN-β secretion by THP-1 cells (IFN-beta ELISA); type: cell-based, human
[2] = tested on: CT26 cells; assay: Inhibition of CT26 cell proliferation (CellTiter-Glo); type: cell-based, mouse
Experimental: CT26 cells are a mouse colorectal cancer cell line. In this experiment, CellTiter-Glo Luminescence Cell Viability Assay kit from Promega was used to assess the inhibitory activity of the compounds on CT26 cell proliferation.
When CT26 cells (ATCC #CRL-2638) were revived, the cryovial was rapid shaken in a 37°C water bath to thaw with 1 min. The thawed cell suspension was mixed well with DMEM medium (GE Company, Cat. No. #SH30243.01) containing 10% FBS (GIBCO, Cat. No. #10099-141), centrifuged at 1000 rpm for 5 min, and the supernatant was discarded. The cell pellet was resuspended in 5 mL of complete medium (DMEM medium containing 10% FBS), placed in a cell culture flask with a bottom area of 25 cm^2, and cultured in a cell incubator at 37°C, 5% CO2, and 95% humidity. Passage was performed when the confluence rate of cells reached 70%~80%. Referring to the cell passage method at plating, all cells in the flask were transferred to a 15 mL centrifuge tube, centrifuged at 1000 rpm for 5 minutes, and the supernatant was discarded. The cell pellet was resuspended in 5 mL of new complete medium, 1 mL was placed in a cell culture flask with a bottom area of 25 cm^2, and 4 mL of fresh complete medium was added to continue the culture. Plating was performed when the cell confluence rate of cells reached 70% to 80% again. Referring to the cell passage method at plating, 1/5 of the cell suspension was maintained and the remaining 4/5 of the cell suspension was placed in a 15 mL centrifuge tube. The cells were centrifuged, the old medium was discarded, the cells was washed once with DMEM medium (without serum), and centrifuged to remove the supernatant. Cells were resuspended with DMEM medium (without serum). […]. A cell suspension at a density of 1.1 x 10^4 viable cells/mL was prepared using DMEM medium (without serum) and 90 µL of the cell suspension was added to 96-well clear flat-bottom black-walled cell culture plate wells (Corning, Cat. No. #3603) to yield a cell density of 1000 viable cells/well in the plate. A control group without cells, without compounds, and with complete medium only (i.e., culture medium control) was set up, and a control group without compounds and with cells (i.e., cell control) was set up. The plates were incubated overnight in a cell incubator.
A DMSO stock solution of 10 mM compound was first serially diluted at a 3.16-fold dilution ratio with DMSO (Sigma, Cat. No. #D2650) to a ninth concentration and a tenth concentration of DMSO control without compound was set. DMSO solutions containing different concentrations of the compound were then diluted a 10-fold dilution ratio with PBS (Solarbio company, Cat. No. #P1020) to achieve a DMSO content of 10% in each concentration of the compound solution. Finally, 10 µL of the above solution was added to the corresponding cell culture plate to achieve a starting concentration of 100 µM compound, a 3.16-fold dilution ratio of adjacent concentrations, and a DMSO content of 1% in the cell culture plate. The plates were maintained in a cell incubator for an additional 120 hours.
After 120 hours, the CellTiter-Glo reagent (Promega, Cat. No. #G7572) was thawed and the plate was equilibrated at room temperature for 30 min. Then, 100 µL CellTiter-Glo was added to each well of the plate and shaken on an orbital shaker for 5 min to fully lyse the cells. The plate was placed at room temperature for 20 min to stabilize the cold light signal, and the cold light value of each well was scanned with a multifunctional microplate reader (Molecular Devices, Spectramax M3) at full wavelength.
The compound of the present invention and ADU-S100 (MCE, Cat. No. #HY12885A) were used as controls: Clofarabine (Wuhu Huaren Technology, Cat. No. #HR-00701002), Cladribine (CSNpharm, Cat. No. #CSN10004), Gemcitabine Hydrochloride (Shaoyuan, Cat. No. #SY014538), Gemcitabine Prodrug LY2334737 (home-made). […]

[3] = tested on: A20; assay: Inhibition of tumor cell line proliferation (Table 3), A20; type: cell-based; conditions: A20, Mouse B lymphoma cells
[4] = tested on: B16F10; assay: Inhibition of tumor cell line proliferation (Table 3), B16F10; type: cell-based; conditions: B16-F10; B16F10, Mouse melanoma cells
[5] = tested on: Daudi; assay: Inhibition of tumor cell line proliferation (Table 3), Daudi; type: cell-based; conditions: Human Burkitt's lymphoma cells
[6] = tested on: H22; assay: Inhibition of tumor cell line proliferation (Table 3), H22; type: cell-based; conditions: H22, Mouse hepatoma cells
[7] = tested on: MC38; assay: Inhibition of tumor cell line proliferation (Table 3), MC38; type: cell-based; conditions: MC-38; MC38, Mouse colon cancer cells
[8] = tested on: SK-MEL5; assay: Inhibition of tumor cell line proliferation (Table 3), SK-MEL5; type: cell-based; conditions: SK-MEL-5; SK-MEL5, Human melanoma cells
[9] = tested on: 4T1; assay: Inhibition of tumor cell line proliferation (Table 3), 4T1; type: cell-based; conditions: 4T1, Mouse breast cancer cells
[10] = tested on: CT26 cells; assay: CT26 syngeneic mouse bilateral transplanted tumor model; type: in vivo, BALB/c mice; conditions: left (untreated) tumor; 50 µg compound/mouse (2.5 mg/kg) intratumorally into right flank on days 0 and 4; day 13 after treatment
Experimental: When tumors grew to an average volume of 100 mm^3, treatments were randomized and started based on tumor size and mouse body weight. The first day of dosing was Day 0. Two doses were administered, 50 µg compound/mouse (i.e., 2.5 mg/kg) was injected intratumorally into the right flank on days 0 and 4, and the same volume of PBS (Hyclone Company, Cat. No. #SH30258.01) was used as a control. The left tumor was left untreated. Control mice were sacrificed after 13 days of dosing and treated mice were sacrificed 21 days later. During the experiment, the tumor volume and body weight were measured three times a week on the left and right sides, and the tumor volume was calculated as V = D × d × d/2 (wherein D represents the long diameter of the tumor and d represents the short diameter of the tumor).

Which results are given for `Nc1nc2c(ncn2[C@@H]2O[C@@H]3CO[P@@](=O)(S)O[C@H]4[C@H](F)[C@H](n5cnc6c(N)nc(Cl)nc65)O[C@@H]4CO[P@@](=O)(S)O[C@@H]2[C@@H]3O)c(=O)[nH]1` [CDN-3, (2',3')-cyclo-(Rp,Rp)-[2'-O-thiophosphodiester-guanosine]-[3'-O-thiophosphodiester-2-chloro-2'-deoxy-2'-fluoro-beta-adenosine]diammonium salt]?
STING agonist activity (in words) ([1]; EC50 stronger than 2',3'-cGAMP, comparable to ADU-S100): significant STING agonist activity; EC50 ([1]; Homo sapiens, THP-1, 24 h, read-out: THP-1 activity): 1 to 10 µM; IC50 ([2]; Mus musculus, CT26, 120 h, read-out: CT-26 activity): < 1 µM; inhibitory ability on growth of CT26 tumor cells in vitro (in words) ([2]; superior to ADU-S100): particularly significant inhibitory ability; IC50 [3]: 0.032 µM; IC50 [4]: 8.7 µM; IC50 [5]: 0.423 µM; IC50 [6]: 0.982 µM; IC50 [7]: 1.02 µM; IC50 [8]: 0.505 µM; IC50 [9]: 2.27 µM; growth inhibition rates of left tumors [10]: 91.2%
